Source: US20050054103A1, “Expansion of renewable stem cell populations using modulators of PI 3-kinase” (priority 2003, published 2005)

Tests used:
primary hepatocytes = test: Primary hepatocyte cultures with RAR antagonist (AFP/albumin immunostaining, Giemsa); type: cell-based, mice; settings: for α-fetoprotein (AFP) expression vs control: three week old primary cultures, no cytokines
Method: Three intact livers were harvested from 3 week old VLVC female mice (Harlan Laboratories, Jerusalem, Israel), dissected and washed twice with DMEM (Beit Haemek, Israel), incubated with DMEM in the presence 0.05% collagenase for 30 minutes at 37° C., ground and passed through a 200 μm mesh sieve, yielding individual hepatocytes. Cells were washed twice and viability was ascertained with trypan blue. Cells were plated in collagen-coated, 35 mm tissue culture plates at a density of 4-×10^4 live cells/ml in F12 media (containing 15 mM Hepes, 0.1% glucose, 10 mM sodium bicarbonate, 100 units/ml penicillin-streptomycin, glutamine, 0.5 units/ml insulin, 7.5 m cg/ml hydrocortisone, and 10% fetal bovine serum). Medium was changed after 12 hours, the cells were washed twice with phosphate buffered saline (PBS) and new medium was added. Medium was changed twice a week.
Hepatocytes were also grown in the presence of Epidermal Growth Factor (EGF), Platelet-Derived Growth Factor β chain (PDGF-BB), Fibroblast growth Factors (FGF-4) and Hepatocyte Growth Factor (HGF), at 20-50 ng/ml each, for the entire culturing period according to the method of Schwartz et al. (Schwartz R E, Reyes M, Koodie L, Jiang Y, Blackstad M, Lund T, Lenvik T, Johnson S, Hu W S, Verfaillie C M. Multipotent adult progenitor cells from bone marrow differentiate into functional hepatocyte-like cells. J Clin Invest. 2002; 109 (10): 1291-302). Hepatocytes were also grown in serum free medium according to the method of Runge et al. (Runge D, Runge D M, Jager D, Lubecki K A, Beer Stolz D, Karathanasis S, Kietzmann T, Strom S C, Jungermann K, Fleig W E, Michalopoulos G K. Serum-free, long-term cultures of human hepatocytes: maintenance of cell morphology, transcription factors, and liver-specific functions. Biochem Biophys Res Commun. 2000; 269(1): 46-53).
In all of the above-mentioned hepatocytes culture conditions, cells are grown in the presence or absence of the retinoic acid antagonist AGN 194310 at concentrations ranging from 10^−5 M to 10^−9 M.
After a period of 3 weeks, cultures treated with 10^−5 M antagonist were detached with 0.25% trypsin, split and replated at a 1:2 ratio. The cells were either immunostained as described below, or visualized with Giemsa staining.
Murine hepatocyte cultures supplemented with EGF and HGF were evaluated as primary cultures, or following first and second passages. First passage cultures were grown for 2 weeks, split 1:2 and immunostained 8 days later for the presence of albumin, as described below. Second passage cultures were similarly grown for 2 weeks, split 1:2, and grown for an additional week, then split 1:4 and similarly immunostained 4 days later. […]

[1] = tested on: Normal human erythroid cells; test: Human erythroid two-phase liquid culture; type: cell-based; settings: TEPA 10 μM in second phase, after 14 days
Method: Peripheral blood mononuclear cells, obtained from an adult normal donor, were cultured in the erythroid two-phase liquid culture system (23-25). The second phase of the culture was supplemented either without or with 10 μM of TEPA. Cultures were analyze for total cells and hemoglobin-containing [benzidine positive (B^+)] cells after 14 days.
Human erythroid cell cultures: Normal human erythroid cells were grown according to the two-phase liquid culture procedure, essentially as described in references 67-70. In the first phase, peripheral blood mononuclear cells were incubated in the presence of early growth factors for 5-7 days. In the second phase, these factors were replaced by the erythroid specific proliferation/differentiation factor, erythropoietin.
The cultures were supplemented with TEPA at the initiation of the second phase. The total cell number and the percentage of hemoglobin-containing cells were determined after 14 days.

[2] = tested on: Boston fern Callus tissue cultures; test: Intracellular copper content of plant callus tissues incubated with TEPA; type: cell-based; settings: two days
Method: Plant cells: The effect of TEPA on the intracellular copper content of plant cells was determined as follows. Boston fern Callus tissue cultures were obtained from a commercial plant tissue culture production facility (Biological Industries, Kibbutz Bet Ha'Emek, Israel) and incubated with different concentrations of TEPA in the culture medium for two days at room temperature. After three washes with PBS the tissues were suspended in 0.03 M ultra pure nitric acid and homogenized with a high shear mixer (polytron, Kinematica, Switzerland) for 3 minutes to disrupt the cells and release intracellular copper. Cell samples were vortexed before transferring to a vial autosampler and analyzed in duplicate by a Perkin Elmer graphite furnace atomic absorption spectrophotometer at a wavelength of 324.7 nm. The samples were analyzed against copper standard solution prepared from a commercial stock solution that was diluted with 0.03 M ultra pure nitric acid.

## CCc1ccc(C2=CC(C)(C)Sc3ccc(C#Cc4ccc(C(=O)O)cc4)cc32)cc1 [AGN 194310]
Primary hepatocytes; 10^−5 M, primary cultures
  oval cell population (giemsa): marked increase in oval cell population
Primary hepatocytes; 10^−5 M
  α-fetoprotein (AFP) expression vs control: marked increase in AFP expression
Primary hepatocytes; 10^−5 M, listed as retinoic acid antagonist
  α-fetoprotein (AFP) expression vs control: increase in the fraction of cells that stained positively for α-fetoprotein
Primary hepatocytes; second passage, EGF + HGF, 10^−5 M to 10^−7 M
  numbers of hepatocytes vs controls: Significantly greater numbers of hepatocytes

## NCCNCCNCCNCCN [TEPA, tetraethylenepentamine]
[1]
  hemoglobin-containing cells: sharp decrease
  total number of cells: decreased only slightly
[2]; TEPA 10 μM in medium
  Average Intracellular Copper Content (ppb): 13.85 +/− 4.09 ppb
[2]; TEPA 50 μM in medium
  Average Intracellular Copper Content (ppb): 8.45 +/− 0.05 ppb
[2]; TEPA 100 μM in medium
  Average Intracellular Copper Content (ppb): 7.1 +/− 2.12 ppb
